This note sets out measurements from patent US20080312207A1, “Compounds” (priority 2004, published 2008).

Data set [1] has as its system Zucker obese fa/fa rats. In words: Oral Glucose Tolerance Test (OGTT). In kind it is in vivo, rat. The note with it: 10 mg/kg, given orally 120 minutes before glucose 2 g/kg; percent inhibition of blood glucose AUC vs vehicle. On the procedure: The animals were fasted for 2 hours before use for experiments. A test compound or a vehicle was given orally 120 minutes before oral administration of a glucose solution at a dose of 2 g/kg body weight. Blood glucose levels were measured using a Accucheck glucometer from tail bled samples taken at different time points before and after administration of glucose (time course of 60 minutes). […] Percent inhibition is determined using the AUC in the vehicle-control group as zero percent inhibition.

Data set [2] has as its target T1, recombinant human pancreatic GLK (Homo sapiens, UniProt P35557).
T1 construct: 6-His (N); made in house; host or cells: E. coli BL21
T1 sequence (P35557 1-465): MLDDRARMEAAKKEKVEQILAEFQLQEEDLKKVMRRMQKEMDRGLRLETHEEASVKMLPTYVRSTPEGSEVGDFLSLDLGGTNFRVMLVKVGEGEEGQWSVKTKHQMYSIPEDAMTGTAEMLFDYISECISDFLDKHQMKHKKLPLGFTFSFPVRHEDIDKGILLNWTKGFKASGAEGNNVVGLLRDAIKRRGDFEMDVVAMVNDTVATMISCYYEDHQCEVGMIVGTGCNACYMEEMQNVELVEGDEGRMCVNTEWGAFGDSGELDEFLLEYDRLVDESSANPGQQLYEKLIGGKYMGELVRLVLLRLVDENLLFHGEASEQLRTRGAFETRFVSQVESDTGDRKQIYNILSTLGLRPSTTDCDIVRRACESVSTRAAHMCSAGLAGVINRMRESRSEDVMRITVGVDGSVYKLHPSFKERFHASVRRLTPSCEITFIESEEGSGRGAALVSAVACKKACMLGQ
In words: Enzymatic activity of GLK (G-6-P dehydrogenase coupled, NADP/NADPH, OD 340 nm). Particulars: read-out: activating activity for glucokinase, EC50. In kind it is biochemical.

The nature of data set [3]: Oral exposure. Particulars: compared with Example II107 in WO 03/015774. In kind it is in vivo.

Broadly, the EC50 is the midpoint of the concentration-response curve. As to `CC(C)Oc1cc(Oc2ccc(S(C)(=O)=O)cc2)cc(C(=O)Nc2nccs2)c1` [Example 7c, 3-(1-methylethyl)oxy-5-[4-(methylsulfonyl)phenoxy]-N-1,3-thiazol-2-ylbenzamide], the OGTT activity in data set [1] is on record as 18%. Also, in data set [2], the EC50 was 50 nM. For the same compound, the oral exposure result in data set [3] is listed as “superior”.

For `Cc1cnc(NC(=O)c2cc(OCCc3ccsc3)cc(OC(C)C)c2)s1` [Example II107 in WO 03/015774, reference compound], in data set [1], the OGTT activity entry is given as “not active”.
